For 80 molecules, IC50 results are on record in PubChem BioAssay AID1645865 (Buhrlage Lab, Dana-Farber Cancer Institute and Novartis …, 2021).

Active and inactive are the calls of the source.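 The calls were made as follows: active = maximal inhibition of the USP30 enzyme reaching 30% or more across the dose series; inactive = the rest.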 Where only a bound is given, the exact number is not on record here.

The target of this experiment is Ubiquitin carboxyl-terminal hydrolase 30 (Homo sapiens) (UniProt Q70CQ3). The experiment in a line: ubiquitin-specific protease 30 DUB inhibitors, concentration-effect, biochemical, validation of primary actives (AID 1645865). Particulars: purified USP30, Ub-rhodamine cleavage, fluorescence, 2 h.
Ubiquitin carboxyl-terminal hydrolase 30 (Homo sapiens), sequence (Q70CQ3 whole entry, looked up): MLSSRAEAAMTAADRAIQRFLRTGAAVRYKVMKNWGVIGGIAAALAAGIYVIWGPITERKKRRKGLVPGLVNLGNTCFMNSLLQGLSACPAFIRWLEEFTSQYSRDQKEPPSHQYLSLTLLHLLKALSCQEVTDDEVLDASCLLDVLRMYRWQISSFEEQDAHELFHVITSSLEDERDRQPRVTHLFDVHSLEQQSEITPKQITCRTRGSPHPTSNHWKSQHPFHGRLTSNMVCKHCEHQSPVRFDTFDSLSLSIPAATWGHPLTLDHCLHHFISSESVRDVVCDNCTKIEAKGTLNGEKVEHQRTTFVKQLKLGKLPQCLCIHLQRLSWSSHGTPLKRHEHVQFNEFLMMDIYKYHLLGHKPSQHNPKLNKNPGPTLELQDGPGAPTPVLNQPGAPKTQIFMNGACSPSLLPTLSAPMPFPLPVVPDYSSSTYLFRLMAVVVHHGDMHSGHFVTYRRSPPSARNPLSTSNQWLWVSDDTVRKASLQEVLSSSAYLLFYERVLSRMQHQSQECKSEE

On to `CCCn1c(=O)n(CC(=O)c2ccccc2F)c2c(C(N)=O)nc(-c3ccco3)nc21`, for which the IC50 was > 50 µM (inactive).

Take `N#Cc1c(N)nc2c(c1N)C(c1ccccc1)CO2` (stereo not given): the IC50 was 42.8 µM.

Regarding `CC(=O)N1CCc2cc(S(=O)(=O)NCc3ccc(C)cc3)ccc21`, the IC50 is > 50 µM (inactive).

`Cc1ccc(-n2nc(C)c3c2NC(=O)CC3C(=O)c2cc3ccccc3o2)cc1C` (stereo not given): the IC50 was > 50 µM (inactive).

Consider `Cc1cc(O)c2c3c(c(O)cc2c1)C(=O)c1c(O)cccc1C3=O`, for which the IC50 is > 50 µM (inactive).

For the molecule `CC(C)CCCCCCCCCCC(=O)N(C)[C@H](CO)C(=O)N[C@H](C)C(=O)NCC(=O)N(C)C1C(=O)N[C@@H](C)C(=O)NC(C(=O)O)Cc2ccc(O)c(c2)-c2cc1ccc2O` (stereo not given in full), the IC50 is > 50 µM (inactive).

On to `O=C(CSc1nnc(-c2ccncc2)n1Cc1ccccc1)c1ccc2[nH]c(O)cc2c1`, for which the IC50 was > 50 µM (inactive).

On to `O=S1(=O)CCN(CC2CCCO2)c2c(Oc3ccccc3)nc(F)c(Cl)c21` (stereo not given), for which the IC50 is > 50 µM (inactive).

In the case of `COc1ccc(-n2ccn3c(CCC(=O)NCc4ccc(F)cc4)nnc3c2=O)cc1`, the 50% inhibitory concentration (IC50) is 25.9 µM.

On to `CCCCCCCc1cc(O)cc(OC(=O)c2c(CCCCCCC)cc(O)cc2O[C@H]2O[C@H](C(O)CO)[C@@H](O)[C@@H]2O)c1` (stereo not given in full), for which the half-inhibitory concentration (IC50) was 40.3 µM.

For `COc1cc(C(=O)NC(Cc2ccccc2)c2nc3ccccc3[nH]2)cc(OC)c1OC` (stereo not given), the IC50 was 2.06 µM.

`O=C(Nc1ncc2c(n1)-c1ccccc1CC2)C1CC1`: the IC50 was 17.5 µM.

As to `CCCCCC(=O)N1c2ccccc2NC2=C(C(=O)CC(c3ccc(C(C)(C)C)cc3)C2)C1c1ccncc1` (stereo not given), the half-inhibitory concentration (IC50) was 2.28 µM.

As to `N#Cc1ccc(NC(=O)Nc2cccn(Cc3ccccc3F)c2=O)cc1`, the IC50 was 3.2 µM.

With `CC1=C2C(=NCCN1)C(=O)N(c1ccccc1)C2c1cccnc1` (stereo not given), the IC50 is > 50 µM (inactive).

Consider `O=C(NCC1CC1)C1CCCN(c2ccc(-c3ccccc3)nn2)C1` (stereo not given), for which the IC50 is > 50 µM (inactive).

`O=c1[nH]cccc1NS(=O)(=O)c1ccc(F)cc1`: the IC50 is > 50 µM (inactive).

In the case of `Cc1cnc2nc3c(cc2c1)CN(S(=O)(=O)c1cc(F)ccc1C)CC3`, the IC50 is > 50 µM (inactive).

As to `CC1CC(=O)c2c(cc3c(-c4c(O)cc(O)c5c(O)c6c(cc45)OC(C)CC6=O)c(O)cc(O)c3c2O)O1` (stereo not given), the IC50 is > 50 µM (inactive).

As for `O=C(Cc1c[nH]c2ccccc12)Nc1nc2ccccc2s1`, the IC50 is > 50 µM (inactive).

As to `O=C(Cn1c(=O)c2sccc2n(Cc2ccc([N+](=O)[O-])cc2)c1=O)NCCc1ccccc1`, the half-maximal inhibitory concentration (IC50) was 21.7 µM.

In the case of `CCc1c(Cl)c(O)c(Cl)c(O)c1C(=O)O[C@H]1C(C)O[C@@H](OC/C2=C\C=C\CC(O)/C(C)=C/C(CC)C(O[C@@H]3OC(C)(C)[C@H](O)C(OC(=O)C(C)C)[C@@H]3O)/C(C)=C/C(C)=C/CC(C(C)O)OC2=O)[C@@H](OC)C1O` (stereo not given in full), the IC50 is > 50 µM (inactive).

For `CC(C)Cc1nc2sc3c(NCCN4CCOCC4)ncnc3c2c2c1CCC2`, the IC50 is > 50 µM (inactive).

As for `Cc1ccc(C)c(-n2c(C)cc(/C=C3/C(=N)N4C(c5ccc(F)cc5)=CSC4=NC3=O)c2C)c1`, the IC50 was > 50 µM (inactive).

As for `CN(Cc1ccccc1)S(=O)(=O)c1ccc2[nH]cc(C(=O)NCc3cccs3)c(=O)c2c1`, the half-maximal inhibitory concentration (IC50) is 0.38 µM.

For the molecule `COCCNC(=O)c1ccn(-c2ccc3ccc(-c4ccncc4)cn23)n1`, the IC50 is > 50 µM (inactive).

Consider `O=C(Cn1cncc(-c2nc(-c3ccccc3)cs2)c1=O)NC1CCCC1`, for which the IC50 was 34.5 µM.

Turning to `COc1ccc2[nH]c3c(c2c1)CCN1C(=O)N(c2ccccc2C(=O)NCc2ccccc2)C(=O)[C@]31C`, the IC50 is 28.5 µM.

Turning to `CC(=O)CN1CC2(CCN(Cc3ccc(F)cc3)CC2)COc2ccccc2S1(=O)=O`, the IC50 was > 50 µM (inactive).

For the molecule `Cn1nc(-c2nc(-c3ccccc3)no2)c2c1CCN(C(=O)C1CC1)C2`, the IC50 was > 50 µM (inactive).

Regarding `COc1ccc(C(=O)Nc2nc3n(n2)C(c2ccccc2)CC(=O)N3)cc1` (stereo not given), the 50% inhibitory concentration (IC50) is 10.7 µM.

`Cc1sc(-c2cccnc2)nc1OC(=O)c1ccc(Cl)c(Cl)c1`: the IC50 is > 50 µM (inactive).

Turning to `COc1ccc(CCNC(=O)[C@H](CCSC)NC(=O)N2CCn3c2nc2ccccc23)cc1OC`, the IC50 was 44 µM.

As for `COc1ccc(-n2cc(C(=O)NCc3ccc4c(c3)OCO4)c3ccccc3c2=O)cc1`, the 50% inhibitory concentration (IC50) was 31.9 µM.

For the molecule `COc1ccccc1-c1nc(Cn2nnc(C(=O)Nc3cc(C)cc(C)c3)c2N)c(C)o1`, the IC50 is 39.7 µM.

`CN1CC2CN(C(=O)c3ccc(F)cc3)CCN2Cc2ccccc21` (stereo not given): the IC50 was > 50 µM (inactive).

In the case of `Cc1ccc(-c2cn(CC(=O)N3CCN(c4ccccn4)CC3)c(=O)o2)cc1`, the IC50 was 12.3 µM.

As for `O=C(Nc1ccccc1)c1nc(-c2cn(Cc3ccc(F)cc3)nn2)no1`, the IC50 was 28.6 µM.

For `O=C(CCc1nnc2n(Cc3ccccc3Cl)c(=O)c3ccccc3n12)NCc1ccccn1`, the IC50 is 25.5 µM.

As to `COc1ccc(CNC(=O)CSc2nc3nc(C)ccc3o2)cc1`, the IC50 is 19.7 µM.

Consider `CC1=C(c2ccc(Cl)cc2)S(=O)(=O)NC1=NCC(=O)Nc1ccc(F)cc1`, for which the IC50 is 17 µM.

Take `Fc1cnc(N2CC[C@H]3CO[C@H](CNc4ncccn4)[C@H]3C2)nc1`: the IC50 is > 50 µM (inactive).

Regarding `O=C(COc1cccc(-n2cnnn2)c1)Nc1ccc2c(c1)OCCO2`, the IC50 is > 50 µM (inactive).

On to `Cc1cc(C(=O)Nc2ccc3nc(N4CCN(c5ncccn5)CC4)cc(C)c3c2)ccc1[N+](=O)[O-]`, for which the half-inhibitory concentration (IC50) is 2.24 µM.

For the molecule `C=C(NC(=O)C(=C)NC(=O)c1csc(C2=N[C@@H]3c4csc(n4)[C@H]4NC(=O)c5csc(n5)[C@H]([C@](C)(O)[C@@H](C)O)NC(=O)[C@H]5CSC(=N5)/C(=C/C)NC(=O)C([C@@H](C)O)NC(=O)c5csc(n5)C3(CC2)NC(=O)[C@H](C)NC(=O)C(=C)NC(=O)[C@H](C)NC(=O)C([C@@H](C)CC)N[C@@H]2C=Cc3c(C(C)O)cc(nc3[C@H]2O)C(=O)OC4C)n1)C(N)=O` (stereo not given in full), the IC50 is > 50 µM (inactive).

Regarding `O=C1CC(O)C(O)c2cccc(O)c21` (stereo not given), the IC50 is > 50 µM (inactive).

As to `Cc1cccc(-c2noc(CCn3c(=O)[nH]c4ccccc4c3=O)n2)c1`, the IC50 was 29.8 µM.

Turning to `COc1c(Cl)ccc2c(=O)c3c(O)c4c5c(c3oc12)OCO[C@H]5[C@@H](OC)c1cc2c(c(O)c1-4)C(=O)N(C)[C@H](OC)[C@@H]2O`, the IC50 was 4.94 µM.

Take `Cc1ccc2c(=O)c3c([nH]c2c1C)CCN(CC(=O)NCc1ccccc1)C3`: the IC50 is > 50 µM (inactive).

For `Cc1cnc(CN2CCCC(c3ccc4cn[nH]c4n3)C2)cn1` (stereo not given), the IC50 is > 50 µM (inactive).

Turning to `O=C(Cn1c(=O)nc(-c2ccccc2)c2ccccc21)NCc1ccc2c(c1)OCO2`, the IC50 is 26.2 µM.

Turning to `C=C1Nc2ccccc2C(=O)N1c1cccc(NC(=O)c2ccc(C)c(C)c2)c1`, the IC50 is > 50 µM (inactive).

As to `Cc1cc(Cl)ccc1Nc1nc(Nc2cccc(F)c2)nc2nccnc12`, the IC50 was > 50 µM (inactive).

With `COc1cc(Cl)ccc1Nc1ncc(C(=O)Nc2cc(OC)c(OC)c(OC)c2)c2ccccc12`, the IC50 is less than 0.05 µM.

With `COc1c2c(cc3cc(O)c4c(=O)cc(C)oc4c13)CCC2=O`, the IC50 was > 50 µM (inactive).

As for `CC(C)c1ccc(C(C(=O)NC2CCCCC2)N(C(=O)c2cnccn2)c2cccc(F)c2)cc1` (stereo not given), the IC50 was 22.9 µM.

With `O=C(COc1nc2ccccc2nc1N1CCOCC1)Nc1cccc(S(=O)(=O)N2CCCCC2)c1`, the IC50 was > 50 µM (inactive).

Regarding `O=C(Cc1cc(-c2ccc(F)cc2)on1)NCc1ccccc1`, the IC50 was 18.3 µM.

As to `CCn1cnc2c(-c3ccccc3)cn(CC(=O)NCc3ccc4c(c3)OCO4)c2c1=O`, the IC50 was 5 µM.

On to `COc1cccc(S(=O)(=O)N2CCn3nc(C(C)(C)C)cc3C2)c1`, for which the IC50 was 24.6 µM.

`COc1ccc(CC(=O)Nc2cccc(-c3nc4ncccc4o3)c2)cc1OC`: the IC50 is > 50 µM (inactive).

As to `O=C(COC(=O)Cn1cnc2ccccc21)Nc1ccc2c(c1)OCCO2`, the IC50 is > 50 µM (inactive).

Take `COc1ccc(-c2cc(N3CCC(NC(=O)c4ccccc4)C3)n[nH]2)cc1` (stereo not given): the IC50 is 19.8 µM.

In the case of `COc1ccc(C2/C(=C(\O)c3ccccc3)C(=O)C(=O)N2c2nc3ccc(F)cc3s2)cc1` (stereo not given), the IC50 was 43.1 µM.

Turning to `COc1cccc2c1OCC(C(=O)NCc1ccc(F)cc1)=C2`, the IC50 is > 50 µM (inactive).

For the molecule `CC(C)(C)C(=O)[C@@H]1[C@@H](C(=O)c2ccc3c(c2)OCO3)[C@@]2(C(=O)Nc3ccccc32)[C@H]2c3ccccc3C=CN12`, the IC50 was > 50 µM (inactive).

Consider `COc1c(O)cc(CC(=O)O)c(C(C)=O)c1O`, for which the IC50 was > 5 µM (inactive).

As for `Fc1cc(F)c2[nH]cc(-c3nnnn3-c3ccc4ccccc4c3)c2c1`, the IC50 was 7.66 µM.

In the case of `O=C(CSc1nc2cc(C(F)(F)F)ccc2s1)NCC(=O)c1ccccc1`, the IC50 is 1.82 µM.

In the case of `COCCNC(=O)c1ccnn1-c1ccc2ccc(-c3cccnc3)cn12`, the IC50 is > 50 µM (inactive).

As for `O=C(Cn1c(NCc2ccccc2)nc2ccccc21)NCC(F)(F)F`, the concentration for half-maximal inhibition (IC50) was 33.1 µM.

For `CCn1c(SCC(=O)N2c3ccccc3CC2C)nnc1-c1ccc2c(c1)OCCO2` (stereo not given), the 50% inhibitory concentration (IC50) was 23.2 µM.

For the molecule `Cc1ccccc1-c1noc(-c2ccccc2OCC(=O)NC(C)C)n1`, the IC50 is > 50 µM (inactive).

Take `Cc1cc(=O)n2c3c(c4c(cc13)c(CO)cc(=O)n4C)OC2`: the IC50 is > 5 µM (inactive).

With `Cc1nn(-c2ccc(F)cc2)cc1-c1noc(C(=O)NCc2ccccn2)n1`, the half-maximal inhibitory concentration (IC50) was 27.7 µM.

Consider `CC(=O)Nc1cc2cc(-n3cccc3)ccc2oc1=O`, for which the IC50 is > 50 µM (inactive).

Consider `CCn1c(CN2CCCC(c3nc(-c4cccnc4)n[nH]3)C2)nc2ccccc21` (stereo not given), for which the IC50 is > 50 µM (inactive).

Consider `CCOc1ccc2[nH]c3c(=O)n(CCc4ccc(OC)cc4)cnc3c2c1`, for which the half-inhibitory concentration (IC50) was 2.05 µM.

As to `O=C(Cn1c(=O)n(Cc2ccccc2)c(=O)c2ncccc21)NCc1ccccc1Cl`, the IC50 was > 50 µM (inactive).

Consider `COC(=O)c1cc(C)sc1NC(=O)c1cccc(OC)c1OC`, for which the IC50 is > 50 µM (inactive).

What is called IC50 is the concentration that gives 50% inhibition.
